# Source: PMC9845330 (Communications Biology, 2023)
# Non-standard residues stand in square brackets, D forms with d. Residues, ends and D or L forms follow the SMILES beside them. *: point of attachment. X1 = O=C(CCCC[C@@H]1SC[C@@H]2NC(=O)N[C@@H]21)NCCCOCCOCCOCCCN*; PEG12 = NCCOCCOCCOCCOCCOCCOCCOCCOCCOCCOCCOCCOCCC(=O)O
# Columns and labels:
# [1] = tested on: normal human bronchial epithelial cell line (HBEC); assay: Cell internalization by flow cytometry in normal control cells; format: cell-based; conditions: 50 nM, 1 h
# Source text: Optimizing MGS4 as a monomer is efficient but the optimal valency of the truncated peptide may be different than that of the full-length peptide. The peptide was synthesized as a monomer (MGS4_V8), dimer (MGS4_V9), and tetramer (MGS4_V10). To obtain quantitative data, we moved from measuring the relative fluorescence of dye-labeled peptide to the determination of the average number of dye molecules internalized per cell. […] The dimer MGS4_V9 has an EC50 7-fold lower indicating there is a synergistic effect in going from a monomer to a dimer (Fig. 2a and Table 2). However, there is only a 2-fold decrease in going from a dimer to a tetrameric peptide (MGS4_V10). We also calculated the EC50 on three other NSCLC cell lines (Table 2 and Supplementary Figure 3). […]
# Non-internalized peptide was removed, and the mean number of peptides internalized per cell was determined to calculate the EC50. […] Error bars, in black, represent standard error measurements and are below the height of the symbols in some cases. b The average number of peptide molecules per cell at 50 nM at 1 h was determined on four NSCLC cell lines and one normal human bronchial epithelial cell line (HBEC). […]
# Biotinylated peptide was conjugated to streptavidin-R-phycoerythrin or streptavidin-Alexa Fluor 647 (1:1 molar ratio) for 30 min. […] Flow cytometry was performed on a BD FACSCelesta, and data were analyzed on Flowing software. […]
# [2] = tested on: Lysosome labelled H1299 cells; assay: Colocalization with lysosomes by confocal microscopy; format: cell-based, human; conditions: 24 h, Streptavidin Alexa Fluor 555 conjugate
# Description: Lysosome-labelled cells (green) were treated with MGS4_V8-Streptavidin Alexa Fluor 555 for 30 min, 1 h, 4 h, or 24 h. Peptide-containing vesicles (red) are seen at 30 min separate from the labeled lysosomes, which by 1 h have started to colocalize with lysosomal vesicles (yellow). MGS4_V8 remains colocalized with lysosomes at 24 h with >70% of the signal colocalized with lysosomes (Fig. 3b). Trafficking, accumulation, and retention in the lysosomes is even more evident in the compressed maximally projected z-stack of the cells (Fig. 3c). Of note, lysosomal regeneration is observed at 24 h as witnessed by increased green signal from the GFP that is not colocalized with previously internalized MGS4_V8. […]
# The time course for lysosomal accumulation was performed by imaging at indicated time points using biotinylated peptide conjugated to Streptavidin-Alexa Fluor 555, Streptavidin-Qdot605, or streptavidin-saporin. Saporin was detected using anti-saporin rabbit polyclonal antibody AB-41AP (1:100 dilution) (Advanced Targeting Systems Bio, San Diego, CA). […] Each pixel of a single slice was evaluated for passing the threshold in red (box 1), green (box 2), or both (box3) for colocalization. Mander’s coefficients are calculated for each slice with 0 indicating no colocalization and 1 being complete colocalization.
smiles,measurement,setting,value
CC(=O)N[C@@H](Cc1ccccc1)C(=O)N[C@@H](Cc1c[nH]cn1)C(=O)N[C@@H](C)C(=O)N[C@H](C(=O)N1CCC[C@H]1C(=O)N[C@@H](CCC(N)=O)C(=O)N[C@@H](CO)C(=O)N[C@@H](Cc1ccccc1)C(=O)N[C@@H](Cc1ccc(O)cc1)C(=O)N[C@H](C(=O)NCCOCCOCCOCCOCCOCCOCCOCCOCCOCCOCCOCCOCCC(=O)N[C@@H](CCC(=O)NCCCOCCOCCOCCCNC(=O)CCCC[C@@H]1SC[C@@H]2NC(=O)N[C@@H]21)C(N)=O)[C@@H](C)O)C(C)C [MGS4_V8] (Ac-FHAVPQSFYT[PEG12]E(X1)-NH2),stable in human serum for,,> 48 h
same,internalization in normal cells,[1],minimal internalization
same,signal colocalized with lysosomes,[2],> 70%
